Structures are written as SMILES.

Broadly, the logD is the decadic logarithm of the distribution of all forms, ionised or not, between an organic phase and buffer at a given pH.

The series can be described thus: method code SF-HPLC, from DOI: 10.1002/qsar.200860138. As to conditions: pH 3.0.
As for `O=C(O)Cn1ccc(C(=O)c2ccc(C(F)(F)F)cc2)c1`, the logD amounted to 2.

`O=C(O)Cn1ccc(C(=O)c2ccc3ccccc3c2)c1` displayed a logD of 2.27.

`COc1ccc(C(=O)c2ccn(CC(=O)O)c2)cc1` yielded a logD of 1.57.

In turn, `O=C(O)Cc1ccc(C(=O)c2ccccc2)[nH]1` returned a log distribution coefficient (logD) of 1.87.

In turn, `COc1ccc(C(=O)c2cccn2CC(=O)O)cc1` came in with a log distribution coefficient (logD) of 1.65.

`O=C(O)Cn1cc(C(=O)c2ccccc2)c2ccccc21` gave a pH-dependent lipophilicity (logD) of 2.57.

Compound `O=C(O)Cn1ccc(C(=O)c2ccc(Cl)cc2)c1` showed a logD of 1.95.

Compound `COc1ccc(C(=O)c2cc(C(=O)c3ccc(OC)cc3)n(CC(=O)O)c2)cc1` came in with a logD of 3.15.

`O=C(O)Cn1cc(C(=O)c2ccccc2)cc1C(=O)c1ccccc1` came in with a logD of 2.12.

In the case of `O=C(O)Cn1ccc(-c2nc3ccccc3s2)c1`, the logD worked out at 2.22.

For `Cc1ccc(C(=O)c2ccn(CC(=O)O)c2)cc1`, the pH-dependent lipophilicity (logD) worked out at 1.27.

`O=C(O)Cn1ccc(C(=O)c2ccc([N+](=O)[O-])cc2)c1` returned a logD of 0.93.

The record behind these values is the SangsterLogP compilation.
